# Data from US8134015B2, “Compound inhibiting in vivo phosphorous transport and medicine containing the same” (Kyowa Hakko Kirin Co., Ltd., priority 2003, dated 2012).
# Biological target: T1, rat NaPi-2b (Rattus norvegicus, UniProt Q9JJ09)
# T1 construct: expressed in transfected cells; host or cells: Xenopus oocytes injected with cRNA
# T1 sequence (Q9JJ09 1-695): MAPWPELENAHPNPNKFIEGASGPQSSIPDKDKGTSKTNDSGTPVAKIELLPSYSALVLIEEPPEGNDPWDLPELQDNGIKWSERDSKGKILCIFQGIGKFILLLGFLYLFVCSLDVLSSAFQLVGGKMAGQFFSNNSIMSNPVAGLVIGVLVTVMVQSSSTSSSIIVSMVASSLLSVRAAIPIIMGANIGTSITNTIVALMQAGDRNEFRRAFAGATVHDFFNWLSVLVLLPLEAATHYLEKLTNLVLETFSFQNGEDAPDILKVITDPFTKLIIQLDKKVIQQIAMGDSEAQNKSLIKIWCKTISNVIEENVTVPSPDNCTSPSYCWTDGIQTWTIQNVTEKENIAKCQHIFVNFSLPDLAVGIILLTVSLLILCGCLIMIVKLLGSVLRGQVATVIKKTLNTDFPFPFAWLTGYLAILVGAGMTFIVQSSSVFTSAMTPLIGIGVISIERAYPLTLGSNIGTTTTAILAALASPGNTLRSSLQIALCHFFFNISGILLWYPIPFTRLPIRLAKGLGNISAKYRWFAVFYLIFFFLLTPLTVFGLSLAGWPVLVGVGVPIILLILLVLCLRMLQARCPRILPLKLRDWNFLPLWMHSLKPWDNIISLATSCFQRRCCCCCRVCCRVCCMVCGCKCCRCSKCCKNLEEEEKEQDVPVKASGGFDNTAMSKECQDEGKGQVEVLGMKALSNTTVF
# Assay: Sodium-dependent phosphate uptake of Xenopus oocytes which expressed NaPi-2b (32P)
# Assay type: cell-based
# Details: Xenopus oocytes expressing rat NaPi-2b, 32P radioactive phosphorus; read-out: IC50 (phosphate uptake inhibitory activity)
# In short: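 Steps: rat NaPi-2b cDNA cloned from small intestine; cRNA made and injected into oocytes; 2-day expression; 32P phosphate uptake with compound; % inhibition at 300/100 μM taken from one curve.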
row,IC50 [µM],Structure (SMILES)
1,4.92,"COc1ccc(/C=N/NC(=O)c2c(NC(=O)c3cccc(CN4CCC(CO)CC4)c3)sc3ccccc23)cc1 [Compound 803, 3-(4-Hydroxymethyl-piperidin-1-ylmethyl)-N-[3-(4-methoxy-benzylidene-hydrazinocarbonyl)-benzo[b]thiophen-2-yl]-benzamide]"
2,1.23,"Cc1ccc(/C=N/NC(=O)c2c(NC(=O)c3cccc(CN(CC(C)O)CC(C)O)c3)sc3c2CCC3)cc1C (centres unmarked) [Compound 804, 3-{[Bis-(2-hydroxy-propyl)-amino]-methyl}-N-[3-(3,4-dimethyl-benzylidene-hydrazinocarbonyl)-5,6-dihydro-4H-cyclopenta[b]thiophen-2-yl]-benzamide]"
3,4.76,"Cc1ccc(/C=N/NC(=O)c2c(NC(=O)c3cccc(CN(CC(C)O)CC(C)O)c3)sc3c2CCC3)cc1 (centres unmarked) [Compound 805, 3-{[Bis-(2-hydroxy-propyl)-amino]-methyl}-N-[3-(4-methyl-benzylidene-hydrazinocarbonyl)-5,6-dihydro-4H-cyclopenta[b]-thiophen-2-yl]-benzamide]"
4,1.97,"CC(O)CN(Cc1cccc(C(=O)Nc2sc3c(c2C(=O)N/N=C/c2ccc(Cl)c(C(F)(F)F)c2)CCC3)c1)CC(C)O (centres unmarked) [Compound 808, 3-{[Bis-(2-hydroxy-propyl)-amino]-methyl}-N-[3-(4-chloro-3-trifluoromethyl-benzylidene-hydrazinocarbonyl)-5,6-dihydro-4H-cyclopenta[b]thiophen-2-yl]-benzamide]"
5,5.22,"COc1ccc(/C=N/NC(=O)c2c(NC(=O)c3cccc(CN(CC(C)O)CC(C)O)c3)sc3c2CCC3)cc1 (centres unmarked) [Compound 809, 3-{[Bis-(2-hydroxy-propyl)-amino]-methyl}-N-[3-(4-methoxy-benzylidene-hydrazinocarbonyl)-5,6-dihydro-4H-cyclopenta[b]thiophen-2-yl]-benzamide]"
6,5.58,"CCN(CC)CCNCc1cccc(C(=O)Nc2sc3c(c2C(=O)N/N=C/c2cccc(F)c2)CCC3)c1 [Compound 812, 3-[(2-Diethylamino-ethylamino)-methyl]-N-[3-(3-fluoro-benzylidene-hydrazinocarbonyl)-5,6-dihydro-4H-cyclopenta[b]thiophen-2-yl]-benzamide]"
7,16.7,"CCN(CC)CCNCc1cccc(C(=O)Nc2sc3c(c2C(=O)N/N=C/c2ccc(OC)cc2)CCC3)c1 [Compound 815, 3-[(2-Diethylamino-ethylamino)-methyl]-N-[3-(4-methoxy-benzylidene-hydrazinocarbonyl)-5,6-dihydro-4H-cyclopenta[b]thiophen-2-yl]-benzamide]"
8,14.8,"Cc1ccc(/C=N/NC(=O)c2c(NC(=O)c3cccc(CN4CCC(CO)CC4)c3)sc3c2CCC3)cc1C [Compound 816, N-[3-(3,4-Dimethyl-benzylidene-hydrazinocarbonyl)-5,6-dihydro-4H-cyclopenta[b]thiophen-2-yl]-3-(4-hydroxymethyl-piperidin-1-ylmethyl)-benzamide]"
9,36.1,"Cc1ccc(/C=N/NC(=O)c2c(NC(=O)c3cccc(CN4CCC(CO)CC4)c3)sc3c2CCC3)cc1 [Compound 817, 3-(4-Hydroxymethyl-piperidin-1-ylmethyl)-N-[3-(4-methyl-benzylidene-hydrazinocarbonyl)-5,6-dihydro-4H-cyclopenta[b]thiophen-2-yl]-benzamide]"
10,5.95,"O=C(Nc1sc2c(c1C(=O)N/N=C/c1cccc(F)c1)CCC2)c1cccc(CN2CCC(CO)CC2)c1 [Compound 819, N-[3-(3-Fluoro-benzylidene-hydrazinocarbonyl)-5,6-dihydro-4H-cyclopenta[b]thiophen-2-yl]-3-(4-hydroxymethyl-piperidin-1-ylmethyl)-benzamide]"
11,17.9,"O=C(Nc1sc2c(c1C(=O)N/N=C/c1ccc(Cl)c(C(F)(F)F)c1)CCC2)c1cccc(CN2CCC(CO)CC2)c1 [Compound 820, N-[3-(4-Chloro-3-trifluoromethyl-benzylidene-hydrazinocarbonyl)-5,6-dihydro-4H-cyclopenta[b]thiophen-2-yl]-3-(4-hydroxymethyl-piperidin-1-ylmethyl)-benzamide]"
